This is an account of results in patent publication US6706664B1, “Benzoxazole compounds, process for the preparation thereof and herbicides” (UBE Industries, Ltd., priority 1999, dated 2004).

What all share (parameters): key: 0: normal development; 1: Less damaged; 2: Slightly damaged; 3: Moderately damaged; 4: Severely damaged; 5: All killed
One assay deals with young rice plant. Description: Herbicidal test for paddy field. To be noted: paddy field pot, 500 g/ha dropwise at 1.5 leaf stage of barnyardgrass, 3 weeks, rank vs non-treated. The assay is classed as in vivo. In outline:
(§1)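 Under flooded conditions (3 cm water over Ube soil), each compound was delivered by pipet as a diluted wettable powder (0.05% surfactant) at 500 g/ha, timed to 1.5-leaf barnyardgrass. Plants stayed 3 weeks in a 25° C glasshouse before injury was graded from 0 (normal) to 5 (all killed).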

In assay [1] the test system is barnyardgrass. Description: Herbicidal test for paddy field. Type of assay: in vivo, Echinochloa crusgalli. The conditions noted are these: paddy field pot, 500 g/ha dropwise at 1.5 leaf stage of barnyardgrass, 3 weeks, rank vs non-treated. Put shortly:
as §1

The test system of a further assay is bulrush. Description: Herbicidal test for paddy field. The assay is classed as in vivo, Scrips juncoides. To be noted: paddy field pot, 500 g/ha dropwise at 1.5 leaf stage of barnyardgrass, 3 weeks, rank vs non-treated. In outline:
as §1

The subject of the next assay is flat sedge. Description: Herbicidal test for paddy field. Type of assay: in vivo, Cyperus serotinus. The conditions noted are these: paddy field pot, 500 g/ha dropwise at 1.5 leaf stage of barnyardgrass, 3 weeks, rank vs non-treated. As for the experimental part:
Wagner pots, each having an area of 1/5000 are, were packed with Ube soil (alluvial soil) and planted with seeds or tubers of young rice plant, barnyardgrass, bulrush, flat sedge and monochoria. Then, the pots were filled with water to a depth of 3 cm.
Each wettable powder of the desired compounds (I) shown in Table 1 prepared in accordance with Example 2 was diluted with water containing a surfactant (0.05%) and subjected to dropwise addition treatment by using pipet so that an effective concentration of the compound (I) in each herbicide became 500 g/ha at 1.5 leaf stage of barnyardgrass.
These plants were controlled in a glass house at an average temperature of 25° C. for 3 weeks, and then herbicidal effects thereof were investigated.
The herbicidal effects are evaluated according to the following 6 ranks as compared with non-treated district.
(0: normal development, 1: Less damaged, 2: Slightly damaged, 3: Moderately damaged, 4: Severely damaged, 5: All killed).

Another assay concerns monochoria. Description: Herbicidal test for paddy field. The assay is classed as in vivo, Monochoria vaginalis. To be noted: paddy field pot, 500 g/ha dropwise at 1.5 leaf stage of barnyardgrass, 3 weeks, rank vs non-treated. In outline:
as §1

The next assay deals with corn. Description: Foliar spread test for upland field. Type of assay: in vivo. The conditions noted are these: foliar spray 500 ppm, 3 weeks, rank vs non-treated. Put shortly: (§2)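 Wettable powders at 500 ppm, with 0.5% surfactant, were sprayed uniformly over plants raised for roughly 2 weeks in glasshouse pots of volcanic ash soil. Herbicidal damage rated on a 0–5 scale (5 = all killed) after a further 3 weeks at an average 25 °C.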

Another assay deals with cotton. Description: Foliar spread test for upland field. The assay is classed as in vivo. The conditions noted are these: foliar spray 500 ppm, 3 weeks, rank vs non-treated. In outline: as §2
Another assay relates to solgum. Description: Foliar spread test for upland field. The assay is classed as in vivo. To be noted: foliar spray 500 ppm, 3 weeks, rank vs non-treated. Put shortly:
as §2

A further assay has as its system soybean. Description: Foliar spread test for upland field. Type of assay: in vivo. To be noted: foliar spray 500 ppm, 3 weeks, rank vs non-treated. Put shortly: as §2
The subject of another assay is sugar beat. Description: Foliar spread test for upland field. The assay is classed as in vivo. The conditions noted are these: foliar spray 500 ppm, 3 weeks, rank vs non-treated. In outline:
as §2

A further assay concerns wheat. Description: Foliar spread test for upland field. The assay is classed as in vivo. To be noted: foliar spray 500 ppm, 3 weeks, rank vs non-treated. Put shortly:
as §2

The subject of another assay is Large crabgrass. Description: Foliar spread test for upland field. Type of assay: in vivo, Digitaria adscendens. To be noted: foliar spray 500 ppm, 3 weeks, rank vs non-treated. Put shortly: (§3)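 Two-week-old glasshouse seedlings on volcanic ash soil were treated by foliar spray at 500 ppm, with 0.5% surfactant in the diluent. Effects were graded visually after three weeks, from 0 for no injury to 5 for complete kill.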

The test system of assay [2] is barnyardgrass. Description: Foliar spread test for upland field. Type of assay: in vivo, Echinochloa crusgalli. The conditions noted are these: foliar spray 500 ppm, 3 weeks, rank vs non-treated. Put shortly:
as §3

A further assay has as its system green foxtail. Description: Foliar spread test for upland field. The assay is classed as in vivo, Setaria viridis. The conditions noted are these: foliar spray 500 ppm, 3 weeks, rank vs non-treated. Put shortly: as §3
For another assay, the system named is blackgrass. Description: Foliar spread test for upland field. The assay is classed as in vivo, Alopecurus aegualis. The conditions noted are these: foliar spray 500 ppm, 3 weeks, rank vs non-treated. In outline: as §3
For the next assay, the system named is annual bluegrass. Description: Foliar spread test for upland field. The assay is classed as in vivo, Poa annua. The conditions noted are these: foliar spray 500 ppm, 3 weeks, rank vs non-treated. In outline: as §3
In a further assay the test system is common lambsquartes. Description: Foliar spread test for upland field. The assay is classed as in vivo, Chenopodium album. The conditions noted are these: foliar spray 500 ppm, 3 weeks, rank vs non-treated. Put shortly:
as §3

The next assay concerns livid amaranth. Description: Foliar spread test for upland field. The assay is classed as in vivo, Amaranthus lividus. The conditions noted are these: foliar spray 500 ppm, 3 weeks, rank vs non-treated. Put shortly:
as §3

In another assay the test system is velvetleaf. Description: Foliar spread test for upland field. The assay is classed as in vivo, Abutilon theophrasti. To be noted: foliar spray 500 ppm, 3 weeks, rank vs non-treated. Put shortly:
as §3

A further assay concerns morning glory. Description: Foliar spread test for upland field. Type of assay: in vivo, Ipomoea spps. The conditions noted are these: foliar spray 500 ppm, 3 weeks, rank vs non-treated. Put shortly: as §3

Molecules are shown by their SMILES.

On to `CCCC(Oc1cccc(C#N)c1)c1nc2cc(Cl)ccc2o1` (centres unmarked) [Compound 457], for which the “Effect Young rice plant” value in the assay with young rice plant stood at 1. Also, the “Effect Barnyardgrass” value in the assay on barnyardgrass [1] is listed as 4. Also, in the assay on bulrush, the “Effect Bulrush” value is on record as 4. For the same molecule, the “Effect Flat sedge” value in the assay with flat sedge is listed as 4. For the same molecule, in the assay on monochoria, the “Effect Monochoria” value is 4. The “Effects Corn” value in the assay with corn came to 1. The “Effects Cotton” value in the assay on cotton came out at 3. Moreover, in the assay with solgum, the “Effects Solgum” value amounted to 2. Besides, the “Effects Soybean” value in the assay with soybean turned out to be 3. Further, in the assay on sugar beat, the “Effects Sugar beat” value was 3. In the assay on wheat, the “Effects Wheat” value was determined as 2. In the assay on Large crabgrass, the “Effects Large crabgrass” value stood at 2. In addition, the “Effects Barnyardgrass” value in the assay with barnyardgrass [2] came out at 2. The “Effects Green foxtail” value with green foxtail is listed as 3. Further, in the assay on blackgrass, the “Effects Blackgrass” value amounted to 2. In addition, in the assay on annual bluegrass, the “Effects Annual bluegrass” value is reported as 2. For the same molecule, the “Effects Common lambsquarters” value in the assay with common lambsquartes was 3. In the assay with livid amaranth, the “Effects Livid amaranth” value is reported as 4. Moreover, in the assay on velvetleaf, the “Effects Velvetleaf” value stood at 3. Besides, the “Effects Morning glory” value in the assay on morning glory worked out at 3.
